In US20230293487A1, “ANTI-INFLAMMATORY COMPOSITION COMPRISING BENZOFURAN-BASED N-ACYLHYDRAZONE DERIVATIVES” (KOREA RESEARCH INSTITUTE OF BIOSCIENCE AND BIOTECHNOLOGY, priority 2020, published 2023):

How the values were obtained:
NF-κB [1] = experiment: NF-κB luciferase reporter assay, TNF-α induced (Test Example 1); assay type: cell-based; conditions: Homo sapiens; HEK293, NF-κB luciferase vector, 10 ng/ml TNF-α, 1 uM compound; FIG. 1; read-out: NF-κB activity inhibited (reporter activity)
Method: The cultured human-derived HEK293 cell line was transfected with the NF-κB luciferase (reporter) vector, and treated with 10 ng/ml of TNF-α to induce activation of the NF-κB signaling pathway. In addition, during the above process, 1 uM of each of 9 kinds of compounds represented by [Chemical Formula 1] was treated to measure the inhibitory effect of the NF-κB-mediated inflammatory response regulatory pathway. Specifically, the relative expression level of NF-κB was confirmed.

NF-κB [2] = experiment: NF-κB luciferase assay, luminometer (Test Example 3); assay type: cell-based, human; conditions: HEK293, 1 uM compound, 10 ng/ml TNF-α; FIG. 3
Method: HEK293 cell line, a human-derived embryonic kidney cell line, was cultured, transfected with NF-κB luciferase vector, treated with 1 uM of the compound, and then treated with 10 ng/ml of TNF-α to induce the NF-κB pathway. Luciferase assay method was performed to quantitatively measure the effect on NF-κB gene expression using a luminometer.

[3] = test system: mice (oxazolone-induced skin inflammation); experiment: Oxazolone-induced skin inflammation in mouse ears (Test Example 4): naked eye, H&E staining, immune cell count; assay type: in vivo; conditions: compound 20 μl at 500 nM, 5 applications; for number of inflammatory immune cells in skin: counted from H&E pictures, FIG. 6; for skin condition of ears confirmed with naked eye / thickness of the entire skin and epithelium (H&E staining): oxazolone on mouse ears; for skin condition of ears confirmed with naked eye: FIG. 4; for thickness of the entire skin and epithelium (H&E staining): FIG. 5
Method: 3% Oxazolone (150 μl) was applied to the abdominal skin of 6-week-old mice to induce an immune response, and 0.5% diluted oxazolone (20 μl) was applied to the ears of mice a total of 5 times at intervals of one day to induce an inflammatory response. After 30 minutes of oxazolone application, Example 4 (CAP-1042) or Example 12 (CAP-1047) was applied a total of 5 times in an amount of 20 μl each at a concentration of 500 nM each.
The number of mice in each experimental group was maintained at 10 or more, and the experiment was repeated twice in total.
Specifically, after H&E staining (FIG. 5), photographs of at least 10 different parts of each sample were taken evenly under a microscope. Then, the number of inflammatory immune cells stained in dark red was directly counted from the pictures taken, and the average value was calculated.

[4] = test system: mice (LPS-induced sepsis); experiment: LPS-induced sepsis (cytokine storm-like) model (Test Example 7); assay type: in vivo; conditions: LPS intraperitoneal, drug intravenous; FIG. 11B
Method: Since there were no disease model animals leading to death from a cytokine storm caused by coronaviruses, particularly Sars-Cov2, the present inventors used an acute sepsis model in which an acute inflammatory response is induced to cause the cytokine storm problem and confirmed inhibition of the cytokine storm, the possibility of treating severe acute respiratory syndrome coronavirus 2 infection disease and the possibility of treating sepsis.
An experiment was performed by treating LPS on an animal model (cytokine storm-like model) of sepsis (death). Mice were intraperitoneally administered with LPS for induction of sepsis and injected intravenously with the drug (Example 4), and then blood was collected at 3, 6, and 12 hours. The survival rate was confirmed for 48 hours to observe mortality due to sepsis.

P-p65 protein = experiment: Western blotting of NF-κB canonical pathway, induced with TNF-α (Test Example 5); assay type: cell-based; conditions: TNFα induction, own compound used = Example 4 (1042), b448, FIG. 8
Excerpt: (§1) The NF-κB signaling pathway is largely divided into canonical and non-canonical pathways. In the canonical pathway, when an inflammatory response is induced by treatment with TNF-α, the amount of P-p65 protein, which is a phosphorylated product of p65 protein, increases and migrates into the nucleus, inducing an inflammatory response. In the non-canonical pathway, when an inflammatory response is induced with a LIGHT compound that activates the non-canonical NF-κB pathway, the p100 protein is converted into p52 protein through processing and migrates into the nucleus to induce an inflammatory response. […] Specifically, in order to confirm whether the activation of NF-κB signaling pathways (canonical and non-canonical pathways) is regulated, the regulation of phosphorylated p65 and p100 proteins, which are major signal regulating molecules, was confirmed using Western blotting. In the present experiment, the compound of Example 4 (1042) was used as the compound according to the present disclosure.

p100 protein = experiment: Western blotting of NF-κB non-canonical pathway, induced with LIGHT (Test Example 5); assay type: cell-based; conditions: LIGHT induction, own compound used = Example 4 (1042), b448, FIG. 8
Excerpt: as §1

CCOCCn1c(Cl)c(/C=N/NC(=O)c2cc3cc(C)ccc3o2)c2ccccc21 [Example 4, (E)-N′-[(2-chloro-1-(2-ethoxyethyl)-1H-indol-3-yl]methylene}-5-methylbenzofuran-2-carbohydrazide]
inhibition at 1 µM (NF-κB [1]): ≥ 50% | expression amount of the NF-κB gene (luciferase) (NF-κB [2]): significantly decreased | number of inflammatory immune cells in skin [3]: reduced the number of immune cells induced by the inflammatory reaction to the extent very similar to that of the normal case treated with ethanol | skin condition of ears confirmed with naked eye [3]: skin conditions very similar to those of normal animals treated with ethanol | thickness of the entire skin and epithelium (H&E staining) [3]: reduced to the extent very similar to that of the normal skin treated with ethanol | mortality due to sepsis (survival rate after 48 hours) [4]: significantly reduced mortality due to sepsis

COC(=O)Cn1c(Cl)c(/C=N/NC(=O)c2cc3cc(C)ccc3o2)c2ccccc21 [Example 23, methyl (E)-2-(2-chloro-3-((2-(5-methylbenzofuran-2-carbonyl)hydrazinylidene)methyl)-1H-indol-1-yl)acetate]
inhibition at 1 µM (NF-κB [1]): ≥ 50% | melting point: 212 °C

NC(=O)Nc1sc(-c2ccc(F)cc2)cc1C(N)=O [TPCA1]
inhibition of canonical NF-κB pathway (P-p65) (P-p65 protein): acts on the canonical pathway | inhibition of non-canonical NF-κB pathway (p100 to p52 processing) (p100 protein): not on the non-canonical pathway

CCOC(=O)Cn1c(C)c(/C=N/NC(=O)c2cc3cc(C)ccc3o2)c2ccccc21 [Example 21, ethyl (E)-2-(2-methyl-3-((2-(5-methylbenzofuran-2-carbonyl)hydrazinylidene)methyl)-1H-indol-1-yl)acetate]
melting point: 186 °C

(E)-N′-[(2-chloro-1-(2-methoxyethyl)-1H-indol-3-yl]methylene}-5-methylbenzofuran-2-carbohydrazide [Example 7]
number of inflammatory immune cells in skin [3]: reduced the number of immune cells induced by the inflammatory reaction to the extent very similar to that of the normal case treated with ethanol

CCOC(=O)Cn1c(C)c(/C=N/NC(=O)c2cc3cc(Cl)ccc3o2)c2ccccc21 [Example 22]
melting point: 214 °C

CCOCCn1c(Cl)c(/C=N/NC(=O)c2cc3cc(C)ccc3o2)c2ccc(OC)cc21 [Example 9, (E)-N′-[(2-chloro-1-(2-ethoxyethyl)-6-methoxy-1H-indol-3-yl]methylene}-5-methylbenzofuran-2-carbohydrazide]
inhibition at 1 µM (NF-κB [1]): ≥ 50%

CCOCCn1c(Cl)c(/C=N/NC(=O)c2cc3cc(C)ccc3o2)c2cc(C)ccc21 [Example 13, (E)-N′-[(2-chloro-1-(2-ethoxyethyl)-5-methyl-1H-indol-3-yl]methylene}-5-methylbenzofuran-2-carbohydrazide]
inhibition at 1 µM (NF-κB [1]): ≥ 50% | expression amount of the NF-κB gene (luciferase) (NF-κB [2]): significantly decreased

CCOCCn1c(Cl)c(/C=N/NC(=O)c2cc3cc(C)ccc3o2)c2cc(F)ccc21 [Example 10, (E)-N′-[(2-chloro-1-(2-ethoxyethyl)-5-fluoro-1H-indol-3-yl]methylene}-5-methylbenzofuran-2-carbohydrazide]
inhibition at 1 µM (NF-κB [1]): ≥ 50% | expression amount of the NF-κB gene (luciferase) (NF-κB [2]): significantly decreased

CCOCCn1c(Cl)c(/C=N/NC(=O)c2cc3cc(C)ccc3o2)c2cc(OC)ccc21 [Example 8, (E)-N′-[(2-chloro-1-(2-ethoxyethyl)-5-methoxy-1H-indol-3-yl]methylene}-5-methylbenzofuran-2-carbohydrazide]
inhibition at 1 µM (NF-κB [1]): ≥ 50%

Cc1ccc2oc(C(=O)N/N=C/c3c(Cl)[nH]c4ccccc34)cc2c1 [Example 1, (E)-N′-[(2-chloro-1H-indol-3-yl)methylene]-5-methylbenzofuran-2-carbohydrazide]
inhibition at 1 µM (NF-κB [1]): ≥ 50%

CCOCCn1c(Cl)c(/C=N/NC(=O)c2cc3cc(C)ccc3o2)c2cc(OC(F)(F)F)ccc21 [Example 12, (E)-N′-[(2-chloro-1-(2-ethoxyethyl)-5-(trifluoromethoxy)-1H-indol-3-yl]methylene}-5-methylbenzofuran-2-carbohydrazide]
inhibition at 1 µM (NF-κB [1]): ≥ 50% | expression amount of the NF-κB gene (luciferase) (NF-κB [2]): significantly decreased | skin condition of ears confirmed with naked eye [3]: skin conditions very similar to those of normal animals treated with ethanol | thickness of the entire skin and epithelium (H&E staining) [3]: reduced to the extent very similar to that of the normal skin treated with ethanol

CCOCCn1c(Cl)c(/C=N/NC(=O)c2cc3cc(C)ccc3o2)c2cc(Cl)ccc21 [Example 11, (E)-N′-[(2,5-dichloro-1-(2-ethoxyethyl)-1H-indol-3-yl]methylene}-5-methylbenzofuran-2-carbohydrazide]
inhibition at 1 µM (NF-κB [1]): ≥ 50% | expression amount of the NF-κB gene (luciferase) (NF-κB [2]): significantly decreased
